Source: patent US8093297B2 (Mutual Pharmaceutical Company, Inc., priority 2009, dated 2012)
Where two headings read alike, the source gives them in different places.

How the values were obtained:
[1] = colchicine in plasma, N=23
[2] = for AUC0-t, geometric mean / AUC∞, geometric mean / Cmax, geometric mean: single 0.6 mg dose alone or with steady-state ritonavir 100 mg b.i.d., ln-transformed data
Procedure: An open-label, non-randomized, single-center, one-sequence, two-period drug interaction study was conducted in healthy male and female volunteers; there will be a 14-day washout between the two periods. Twenty-four (24) non-smoking, non-obese adult volunteers were enrolled. All subjects were dosed and studied as a single cohort, with each subject receiving the same treatment in a non-randomized fashion.
On the evening of Day 18, study participants remained at the clinic for their final study confinement period.
(§1) Pharmacokinetic parameters referred to herein describe the in vivo characteristics of drug (or a metabolite or a surrogate marker for the drug) over time. These include plasma concentration (C), as well as Cmax, Cn, C24, Tmax, and AUC. “Cmax” is the measured plasma concentration of the active agent at the point of maximum, or peak, concentration. “Cmin” is the measured plasma concentration of the active agent at the point of minimum concentration. “Cn” is the measured plasma concentration of the active agent at about n hours after administration. […] The term “Tmax” refers to the time from drug administration until Cmax is reached. “AUC” is the area under the curve of a graph of the measured plasma concentration of an active agent vs. time, measured from one time point to another time point. […] Time t can be the last time point with measurable plasma concentration for an individual formulation. The AUC0-∞, AUC∞ or AUC0-inf is the calculated area under the curve of plasma concentration versus time from time 0 to time infinity.

[3] = not given; remark: listed apart in the source
[4] = colchicine in plasma; single 0.6 mg dose alone (Day 1) or with steady-state diltiazem (Day 21); N=20; arithmetic mean
Procedure: (§2) This study was an open-label, non-randomized, single-center, one-sequence, two-period drug interaction study conducted in healthy male and female volunteers. Twenty-four (24) non-smoking, non-obese adult volunteers were enrolled. All subjects were dosed and studied as a single cohort, with each subject receiving the same treatment in a non-randomized fashion.
as §1

[5] = system: FMF patients; details: reported; cited from earlier work
[6] = clinical; details: both, human, plasma, 0.6 mg
Procedure: as §2, §1

[7] = clinical; details: both, human, plasma, oral, 0.6 mg, geometric mean, colchicine in plasma, single 0.6 mg dose alone or with steady-state ketoconazole 200 mg b.i.d., ln-transformed data
Source text: This study was an open-label, non-randomized, single-center, one-sequence, two-period drug interaction study conducted in healthy male and female volunteers; there will be a 14-day washout between the two periods. Twenty-four (24) non-smoking, non-obese adult volunteers were enrolled.
as §1

[8] = clinical; details: both, human, plasma, oral, 0.6 mg, colchicine in plasma
Procedure: This study was an open-label, non-randomized, single-center, one-sequence, two-period drug interaction study conducted in healthy male and female volunteers; there was a 14-day washout between the two periods. Twenty-four (24) non-smoking, non-obese adult volunteers were enrolled. All subjects were dosed and studied as a single cohort, with each subject receiving the same treatment in a non-randomized fashion.
Azithromycin was administered for 5 consecutive days (2×250 mg once daily [Day 15 only] and then 1×250 mg once daily Days 16-19) beginning on the morning of Day 15, with the last 250 mg azithromycin dose administered on the morning on Day 19.
Azithromycin plasma concentrations were not measured.
as §1

[9] = clinical; details: both, human, plasma, 0.6 mg, colchicine in plasma, single 0.6 mg dose alone (Day 1) or with steady-state diltiazem (Day 21), N=20, arithmetic mean
Procedure: as §2, §1

[10] = Clinical drug-drug interaction study of colchicine and verapamil (Example 8); details: for AUC0-inf: both, human, in vivo, 0.6 mg
Procedure: as §2, §1

[11] = Pharmacokinetic study in healthy adults of single vs. multiple oral doses of colchicine tablets (Example 1); details: for metabolite plasma concentration: after oral colchicine 0.6 mg single and multiple doses, LOQ 0.2 ng/mL, 13 subjects
Procedure: Subjects received a light breakfast served 60 minutes following dose administration in the morning and the evening dose was administered 90 minutes after an evening meal on Days 15 through 24 only. […] Study periods were separated by a 14-day washout. Following the single dose and the last dose of the multiple dose regimen (beginning on the mornings of Day 1 and Day 25, respectively), blood samples were collected (6 mL each) from each subject within 1 hour prior to dosing and after dose administration at study hours 0.5, 1, 1.5, 2, 3, 4, 6, 8, 10, 12, and 24 (while confined) and 36, 48, 72, and 96 (on an outpatient basis).
In tables, the parameter CL/F denotes the apparent total body clearance after administration, calculated as Total Dose/Total AUC0-tau; and Vd/F denotes the apparent total volume of distribution after administration, calculated as Total Dose/(Total AUC∞×Kel).
These include plasma concentration (C), as well as Cmax, Cn, C24, Tmax, and AUC. “Cmax” is the measured plasma concentration of the active agent at the point of maximum, or peak, concentration. “Cmin” is the measured plasma concentration of the active agent at the point of minimum concentration. “Cn” is the measured plasma concentration of the active agent at about n hours after administration. […] The term “Tmax” refers to the time from drug administration until Cmax is reached. “AUC” is the area under the curve of a graph of the measured plasma concentration of an active agent vs. time, measured from one time point to another time point. […] Time t can be the last time point with measurable plasma concentration for an individual formulation. The AUC0-∞, AUC∞ or AUC0-inf is the calculated area under the curve of plasma concentration versus time from time 0 to time infinity.

[12] = colchicine in plasma, single 0.6 mg dose alone (Day 1) or with cyclosporine 100 mg (Day 15), N=23
Procedure: as §2, §1

[13] = colchicine given concomitantly with the named drug; cited from earlier work
[14] = colchicine in plasma, single 0.6 mg dose alone (Day 1) or with steady-state azithromycin (Day 19), N=21, arithmetic mean
[15] = colchicine in plasma, single 0.6 mg dose alone or with steady-state azithromycin
[16] = colchicine, single 0.6 mg dose alone or with steady-state azithromycin, N=21, arithmetic mean
[17] = single 0.6 mg dose alone (Day 1) or with steady-state clarithromycin (Day 29), arithmetic mean
[18] = co-administration with ritonavir 100 mg b.i.d. x 5 days
[19] = colchicine in plasma, single 0.6 mg dose alone (Day 1) or with steady-state ritonavir (Day 19), N=18, arithmetic mean
[20] = following ritonavir 100 mg b.i.d. x 5 days vs colchicine alone
[21] = colchicine in plasma, single 0.6 mg dose alone or with steady-state ketoconazole 200 mg b.i.d., ln-transformed data
[22] = single oral 0.6 mg colchicine following ketoconazole 200 mg b.i.d. x 5 days vs alone
[23] = co-administration with azithromycin
[24] = following azithromycin 500 mg then 250 mg x 4 days vs colchicine alone
[25] = colchicine in plasma, single 0.6 mg dose alone (Day 1) or with steady-state verapamil (Day 19), N=24, arithmetic mean
[26] = colchicine in plasma, single 0.6 mg dose alone or with steady-state verapamil HCl ER 240 mg once daily
[27] = multiple (b.i.d. x 10 days) oral doses colchicine 0.6 mg, after last dose Day 25, healthy adults N=13
[28] = single oral dose colchicine 0.6 mg, fasted, healthy adults N=13
[29] = colchicine in plasma, listed as Colchicine + Ritonovir

COc1cc2c(c(OC)c1OC)-c1ccc(OC)c(=O)cc1[C@@H](NC(C)=O)CC2 [Colchicine + Azithromycin]
AUC0-t [14]: 17.16 ng·h/mL
Cmax [14]: 3.05 ng/mL
AUC0-t, geometric mean [15]: 16.09052 ng·h/mL
AUC∞, geometric mean [15]: 18.31283 ng·h/mL
Cmax, geometric mean [15]: 2.85622 ng/mL
CL/F [16]: 35.01 L/h
t1/2 [16]: 6.71 h

COc1cc2c(c(OC)c1OC)-c1ccc(OC)c(=O)cc1[C@@H](NC(C)=O)CC2 [Colchicine + Clarithromycin]
AUC0-inf [1, 17]: 52.62 ng·h/mL
AUC0-t [1, 17]: 41.95 ng·h/mL
Cmax [1, 17]: 8.44 ng/mL
Tmax (hr)* ([1]; single 0.6 mg dose alone or with steady-state clarithromycin, range printed beside): 1.00 h

COc1cc2c(c(OC)c1OC)-c1ccc(OC)c(=O)cc1[C@@H](NC(C)=O)CC2 [Colchicine, (−)-N-[(7S,12aS)-1,2,3,10-tetramethoxy-9-oxo-5,6,7,9-tetrahydrobenzo[a]heptalen-7-yl]-acetamide]
AUC0-inf [1, 17]: 15.53 ng·h/mL
AUC0-t [1, 17]: 12.37 ng·h/mL
decrease in total apparent oral clearance [2, 18]: 70%
effect on Tmax [2, 18]: not affected
AUC0-∞ [2, 19]: 10.41 ng·h/mL
AUC0-t, geometric mean ([2]; colchicine in plasma): 7.64271 ng·h/mL
AUC∞, geometric mean ([2]; colchicine in plasma): 9.55174 ng·h/mL
Cmax, geometric mean ([2]; colchicine in plasma): 1.79837 ng/mL
increase in exposure to a single 0.6-mg colchicine [2, 20]: approximately 245%
increase in mean peak colchicine concentration [2, 20]: approximately 170%
decrease in total apparent oral clearance ([3]; co-administration with ketoconazole 200 mg b.i.d. x 5 days): 70%
AUC∞, geometric mean [3, 21]: 13.18592 ng·h/mL
increase in AUC0-t of colchicine [3, 22]: 190%
increase in Cmax of colchicine [3, 22]: 90%
decrease in total apparent oral clearance [23]: approximately 30%
effect on Tmax [23]: not affected
AUC0-t [14]: 11.98 ng·h/mL
AUC0-∞ [14]: 14.13 ng·h/mL
AUC∞, geometric mean [15]: 12.9318 ng·h/mL
CL/F [16]: 50.24 L/h
increase in exposure to colchicine (concomitant administration of azithromycin (description)): approximately 46%
increase in exposure to colchicine, AUC0-t [24]: approximately 46%
increase in exposure to colchicine, AUC0-∞ [24]: approximately 40%
increase in mean peak colchicine concentration [24]: approximately 12%
Cmax [4]: 2.17 ng/mL
FMF patients who do not show a beneficial response to colchicine administration [5]: 5-10%
AUC0-inf [6]: 15 ng·h/mL
AUC0-t [6]: 12.6 ng·h/mL
Cmax [6]: 2.72 ng/mL
Tmax [6]: 1.15 h
Cmax [7]: 2.6 ng/mL
Cmax ([8]; single 0.6 mg dose alone (Day 1) or with steady-state azithromycin (Day 19), N=21, arithmetic mean): 2.74 ng/mL
Cmax ([8]; geometric mean, single 0.6 mg dose alone or with steady-state azithromycin): 2.54 ng/mL
AUC0-t [9]: 10 ng·h/mL
AUC0-inf ([10]; AUC0-∞, colchicine in plasma, single 0.6 mg dose alone (Day 1) or with steady-state verapamil (Day 19), N=24, arithmetic mean): 15.4 ng·h/mL
AUC0-inf ([10]; AUC∞, geometric mean, colchicine in plasma, single 0.6 mg dose alone or with steady-state verapamil HCl ER 240 mg once daily): 14.4 ng·h/mL
Cmax [10, 25]: 2.97 ng/mL
AUC0-t, geometric mean [10, 26]: 12.2564 ng·h/mL
CL/F ([10]; colchicine, single 0.6 mg dose alone or with steady-state verapamil, N=24, arithmetic mean): 43.93 L/h
attainment of steady state (trough plasma concentrations) ([11]; 0.6 mg b.i.d.): by approximately the eighth day of dosing for most subjects
elimination half-life ([11]; calculated following a single oral dose, stated not an accurate estimate): approximately 5 hours
Cave, MEAN [11, 27]: 1.69722 ng/mL
Cave, MEDIAN [11, 27]: 1.70192 ng/mL
Cmin, MEDIAN [11, 27]: 0.9035 ng/mL
Ke1, MEAN [11, 27]: 0.0267 h⁻¹
Ke1, MEDIAN [11, 27]: 0.0261 h⁻¹
quantifiability of plasma concentrations after a single dose ([11]; single 0.6 mg oral dose, healthy adults): no longer quantifiable 24 hours post-dose in all but 1 subject
secondary colchicine peak ([11]; single dose or multiple dosing, individual subject data): no subject experienced a secondary colchicine peak
Ke1, MEAN [11, 28]: 0.1829 h⁻¹
Ke1, MEDIAN [11, 28]: 0.1992 h⁻¹
Cmin prior to the morning dose higher than Cmin prior to the evening dose ([11]; steady state, Day 23 and Day 24): approximately 12%

COc1cc2c(c(OC)c1OC)-c1ccc(OC)c(=O)cc1[C@@H](NC(C)=O)CC2 [Colchicine + Ketoconazole]
AUC0-t, geometric mean [3, 21]: 33.2238 ng·h/mL
AUC∞, geometric mean [3, 21]: 42.143 ng·h/mL
Cmax, geometric mean [3, 21]: 5.0785 ng/mL
Tmax (hr)* ([3]; colchicine in plasma, single 0.6 mg dose alone or with steady-state ketoconazole, N=23, *Median (Range) for Tmax): 1.02 h

COc1c(O)cc2c(c1OC)-c1ccc(OC)c(=O)cc1[C@@H](NC(C)=O)CC2 [3-DMC, 3-O-demethylcolchciine]
metabolite plasma concentration [11]: only one sample from 1 subject (of 13 subjects) had a detectable

COc1cc2c(c(OC)c1OC)-c1ccc(OC)c(=O)cc1[C@@H](NC(C)=O)CC2 [Colchicine + Ritonavir]
AUC0-t [2, 19]: 29.05 ng·h/mL
AUC0-∞ [2, 19]: 35.28 ng·h/mL
Cmax [2, 19]: 4.99 ng/mL
AUC0-t, geometric mean [2, 29]: 27.79308 ng·h/mL
AUC∞, geometric mean [2, 29]: 33.77136 ng·h/mL
Cmax, geometric mean [2, 29]: 4.83539 ng/mL

COc1cc2c(c(OC)c1OC)-c1ccc(OC)c(=O)cc1[C@@H](NC(C)=O)CC2 [Colchicine + Verapamil]
AUC0-t [10, 25]: 24.64 ng·h/mL
AUC0-∞ [10, 25]: 30.59 ng·h/mL
Cmax [10, 25]: 3.85 ng/mL
AUC0-t, geometric mean [10, 26]: 23.88921 ng·h/mL
AUC∞, geometric mean [10, 26]: 29.55675 ng·h/mL
Cmax, geometric mean [10, 26]: 3.63968 ng/mL
Tmax ([10]; colchicine in plasma, single 0.6 mg dose alone or with steady-state verapamil, N=24, head says median for Tmax): 1.15 h

COc1cc2c(c(OC)c1O)-c1ccc(OC)c(=O)cc1[C@@H](NC(C)=O)CC2 [2-DMC, 2-O-demethylcolchicine]
metabolite plasma concentration [11]: < 0.2 ng/mL

COc1cc2c(c(OC)c1OC)-c1ccc(OC)c(=O)cc1[C@@H](NC(C)=O)CC2 [Colchicine + Diltiazem]
AUC0-t [4]: 17.73 ng·h/mL
AUC0-∞ [4]: 22.49 ng·h/mL
Cmax [4]: 2.80 ng/mL

COc1cc2c(c(OC)c1OC)-c1ccc(OC)c(=O)cc1[C@@H](NC(C)=O)CC2 [Colchicine + Cyclosporine]
Tmax (hr)* [12]: 1.13 h
AUC0-inf ([12]; arithmetic mean): 47.31 ng·h/mL
AUC0-t ([12]; arithmetic mean): 39.83 ng·h/mL
Cmax ([12]; arithmetic mean): 8.82 ng/mL

CC[C@H]1OC(=O)[C@H](C)[C@@H](O[C@H]2C[C@@](C)(OC)[C@@H](O)[C@H](C)O2)[C@H](C)[C@@H](O[C@@H]2O[C@H](C)C[C@H](N(C)C)[C@H]2O)[C@](C)(OC)C[C@@H](C)C(=O)[C@H](C)[C@@H](O)[C@]1(C)O [Clarithromycin]
Noted or Anticipated Outcome: toxicity reported with concomitant colchicine [13]: fatal colchicine toxicity
